PMC7002245 (European journal of medicinal chemistry, 2019)
Like-named read-outs stand apart in the source and are kept apart here.

Key:
rhinovirus B5 = format: cell-based; details: HeLa cells, CPE inhibition, 72 h post infection; n/a = not active (max 100 μM)
coxsackievirus B3 Nancy = format: cell-based; details: HeLa cells, CPE inhibition, 48 h post infection; n/a = not active (max 100 μM)
[1] = test system: coxsackievirus B3 97927 I1207K I1092; format: cell-based
E. coli PQ37 = test: microbe, parasite or virus in culture; format: cell-based; details: Escherichia coli
CYP3A4 = details: human, hepatocytes
[2] = Pharmacokinetic study in mice after intragastric administration; format: in vivo
rhinovirus B14 = format: cell-based; details: HeLa cells, CPE inhibition, 72 h post infection; n/a = not active (max 100 μM)

Q: Which “IC50 towards rhinovirus B5” value (rhinovirus B5) does the source give for `COC(=O)c1cc(CCCOc2c(C)cc(-c3noc(C(F)(F)F)n3)cc2C)on1` [6a, 3-(3,5-Dimethyl-4-(3-(3-carbmethoxy-isoxazol-5-yl)propoxy)phenyl)-5-trifluoromethyl-1,2,4-oxadiazole] here?
A: no activity

Q: With `CCOC(=O)c1cc(CCCOc2ccc(-c3noc(C(F)(F)F)n3)cc2)on1` [6c, 3-(4-(3-(3-Carbethoxy-isoxazol-5-yl)propoxy)phenyl)-5-trifluoromethyl-1,2,4-oxadiazole] as the compound, how does the “IC50 towards rhinovirus B5” value (rhinovirus B5) read?
A: inactive

Q: And the “IC50 towards coxsackievirus B3 Nancy” value (coxsackievirus B3 Nancy)?
A: inactive

Q: And the “IC50 towards coxsackievirus B3 97927 I1207K I1092” value [1]?
A: inactive

Q: Which zone of inhibition at 10000 µg/mL (E. coli PQ37) does the source give for `CNC(=O)c1cc(CCCOc2c(C)cc(-c3noc(C(F)(F)F)n3)cc2C)on1` [10b, 3-(3,5-Dimethyl-4-(3-(3-methylcarbamoyl-isoxazol-5-yl)propoxy)phenyl)-5-trifluoromethyl-1,2,4-oxadiazole] here?
A: 0 mm

Q: With `Cc1cc(-c2noc(C(F)(F)F)n2)cc(C)c1OCCCc1cc(C(=O)N(C)C)no1` [10e, 3-(3,5-Dimethyl-4-(3-(3-N,N-dimethylcarbamoyl-isoxazol-5-yl)propoxy)phenyl)-5-trifluoromethyl-1,2,4-oxadiazole] as the compound, how does the zone of inhibition at 10000 µg/mL (E. coli PQ37) read?
A: 0 mm

Q: What does the source list for `Cc1cc(-c2noc(C(F)(F)F)n2)ccc1OCCCc1cc(C(=O)N(C)C)no1` [10g, 3-(3-Methyl-4-(3-(3-N,N-dimethylcarbamoyl-isoxazol-5-yl)propoxy)phenyl)-5-trifluoromethyl-1,2,4-oxadiazole]?
A: induction of CYP3A4 (fold) (CYP3A4; 1 μM): 1.2 x; induction of CYP3A4, % of control (CYP3A4; 1 μM): 3%; induction of CYP3A4 (fold) (CYP3A4; 10 μM): 1.4 x; induction of CYP3A4, % of control (CYP3A4; 10 μM): 7%; bioavailability ([2]; 100 mg/kg intragastric): very high bioavailability; CL ([2]; 100 mg/kg single dose intragastric, CL = dose/AUC0-∞): 0.66 h⁻¹; zone of inhibition at 10000 µg/mL (E. coli PQ37): 0 mm

Q: For `CN(C)C(=O)c1cc(CCCOc2ccc(-c3noc(C(F)(F)F)n3)cc2[N+](=O)[O-])on1` [10i, 3-(3-Nitro-4-(3-(3-N,N-dimethylcarbamoyl-isoxazol-5-yl)propoxy)phenyl)-5-trifluoromethyl-1,2,4-oxadiazole], which zone of inhibition at 10000 µg/mL (E. coli PQ37) is on record?
A: 0 mm

Q: With `CN(C)C(=O)c1cc(CCCOc2ccc(-c3noc(C(F)(F)F)n3)cc2C(F)(F)F)on1` [10k, 3-(3-Trifluoromethyl-4-(3-(3-N,N-dimethylcarbamoyl-isoxazol-5-yl)propoxy)phenyl)-5-trifluoromethyl-1,2,4-oxadiazole] as the compound, how does the zone of inhibition at 10000 µg/mL (E. coli PQ37) read?
A: 0 mm

Q: Which “IC50 towards rhinovirus B14” value (rhinovirus B14) does the source give for `CNC(=O)c1cc(CCCOc2ccc(-c3noc(C(F)(F)F)n3)cc2C(F)(F)F)on1` [10m, 3-(3-Trifluoromethyl-4-(3-(3-methylcarbamoyl-isoxazol-5-yl)propoxy)phenyl)-5-trifluoromethyl-1,2,4-oxadiazole] here?
A: did not totally inhibit

Q: And the “IC50 towards rhinovirus B5” value (rhinovirus B5)?
A: did not totally inhibit

Q: What about the “IC50 towards coxsackievirus B3 97927 I1207K I1092” value [1] of the same compound?
A: no activity

Q: Which “induction of CYP3A4, % of control” value (CYP3A4; 1 μM) does the source give for `Cc1cc(CCCOc2c(C)cc(-c3noc(C(F)(F)F)n3)cc2C)on1` [P, pleconaril, reference compound] here?
A: 13%

Q: What about the “induction of CYP3A4, % of control” value (CYP3A4; 10 μM) of the same compound?
A: 30%
